Experimental data taken from ChEMBL document CHEMBL3414535, “Identification and optimization of Escherichia coli GlmU inhibitors: an in silico approach with validation thereof” (Eur J Med Chem, 2015).

The compounds below were run against Bifunctional protein GlmU (Escherichia coli (strain K12), UniProt P0ACC7) (assay: Inhibition of Escherichia coli GlmU acetyltransferase activity assessed as coenzyme A production using acetyl CoA substrate).
Sequence of Bifunctional protein GlmU (P0ACC7 whole entry): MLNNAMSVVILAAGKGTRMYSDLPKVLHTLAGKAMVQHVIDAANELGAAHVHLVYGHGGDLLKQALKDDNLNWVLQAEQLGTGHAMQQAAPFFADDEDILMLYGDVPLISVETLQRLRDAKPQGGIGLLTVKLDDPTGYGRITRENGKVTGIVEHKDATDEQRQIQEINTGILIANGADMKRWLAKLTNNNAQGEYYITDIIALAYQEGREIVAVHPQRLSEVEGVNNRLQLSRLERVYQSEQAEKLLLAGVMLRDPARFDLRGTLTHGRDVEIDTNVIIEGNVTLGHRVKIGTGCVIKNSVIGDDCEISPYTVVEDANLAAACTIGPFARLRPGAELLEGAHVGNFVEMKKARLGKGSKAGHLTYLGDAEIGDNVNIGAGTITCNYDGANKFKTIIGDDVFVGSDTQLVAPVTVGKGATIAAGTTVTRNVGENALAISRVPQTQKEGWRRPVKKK

SMILES | IC50 [nM]
COc1cc(OC)c(S(=O)(=O)N2c3ccccc3Oc3ccccc32)cc1NC(=O)Cc1ccnc(F)c1 | 90
COc1cc(OC)c(S(=O)(=O)N2c3ccccc3CC[C@@H]2C)cc1NC(=O)COc1ccc(C(C)=O)cc1 | 200000
COc1cc(OC)c(S(=O)(=O)N2Cc3ccccc3Oc3ccccc32)cc1NC(=O)CCC(=O)O | 30
COc1cc(OC)c(S(=O)(=O)N2c3ccccc3CC[C@@H]2C)cc1NC(=O)CCC(=O)O | 90
COc1cc(OC)c(S(=O)(=O)NCc2ccccc2N2CCC(C(=O)O)CC2)cc1NC(=O)CCC(=O)O | 500
COc1cc(OC)c(S(=O)(=O)N2c3ccccc3CC[C@@H]2C)cc1NC(=O)c1ccccc1 | 200000
COc1cc(OC)c(S(=O)(=O)N2CCCCC2)cc1NC(C)=O | 80000
COc1cc(OC)c(S(=O)(=O)NCc2ccccc2-c2ccc(C(=O)O)cc2)cc1NC(=O)CCC(=O)O | 900
COc1cc(O)c(S(=O)(=O)N2c3ccccc3Oc3ccccc32)cc1NC(=O)[C@H]1[C@H](C)[C@@H]1C(=O)O | 60
COc1cc(OC)c(S(=O)(=O)N2c3ccccc3CC[C@@H]2C)cc1NC(=O)[C@@H]1[C@@H](C)[C@H]1C(=O)O | 400
COc1cc(OC)c(S(=O)(=O)N2c3ccccc3CC[C@@H]2C)cc1NC(=O)Cc1ccnc(F)c1 | 800
COc1cc(OC)c(S(=O)(=O)NCc2ccccc2N2CCC(CC(=O)O)CC2)cc1NC(=O)CCC(=O)O | 400
COc1cc(OC)c(S(=O)(=O)N(c2ccccc2)c2ccc3ccccc3c2)cc1NC(=O)CCC(=O)O | 40
COc1cc(OC)c(S(=O)(=O)NCc2ccccc2N2CCCCC2)cc1NC(=O)CCC(=O)O | 3000
COc1cc(OC)c(S(=O)(=O)N2c3ccccc3CC[C@H]2C)cc1NC(=O)NCC(=O)O | 500
COc1cc(OC)c(S(=O)(=O)N2c3ccccc3CC[C@H]2C)cc1NC(=S)NCC(=O)O | 500
COc1cc(OC)c(S(=O)(=O)N2c3ccccc3CC[C@@H]2C)cc1NC(=O)/C=C/C(=O)O | 500
COc1cc(OC)c(S(=O)(=O)N2c3ccccc3CC[C@@H]2C)cc1NC(=O)Cc1ccnc(C#N)c1 | 680

Results, then the compound that gave them:

IC50 [nM] | SMILES
15000 | CCN(c1ccccc1C)S(=O)(=O)c1cc(NC(C)=O)c(OC)cc1OC
200000 | COc1cc(OC)c(S(=O)(=O)N(C)C)cc1NC(C)=O
21000 | COc1cc(OC)c(S(=O)(=O)Nc2ccc(C)cc2)cc1NC(C)=O
4000 | COc1cc(OC)c(S(=O)(=O)NCc2ccccc2Br)cc1NC(C)=O
20000 | COc1cc(OC)c(S(=O)(=O)Nc2ccccc2)cc1NC(C)=O
2000 | COc1cc(OC)c(S(=O)(=O)N(c2ccccc2)C(C)C)cc1NC(C)=O
200000 | COc1cc(OC)c(S(=O)(=O)NCc2ccccc2N2CCCCC2)cc1NC(C)=O
15000 | COc1cc(OC)c(S(=O)(=O)Nc2cccc(F)c2)cc1NC(C)=O
40000 | COc1cc(OC)c(S(=O)(=O)NCc2ccccc2N2CCC(CO)CC2)cc1NC(C)=O
3000 | COc1cc(OC)c(S(=O)(=O)N(C)c2ccccc2)cc1NC(C)=O
